Test system: HFD-fed C57BL/6J mice
Experiment: Untargeted cortex LC-MS metabolomics
Type: in vivo
Conditions: cortex of HFD-fed mice
Procedure: Plasma and Cortex LC-MS Metabolomics. The left and right sides of the cortex were pooled and ground using liquid nitrogen. Cortex samples (approximately 30 mg) were extracted as previously described with slight modifications. Tissues were homogenized with 600 μL of cold 80% acetonitrile with 0.1% formic acid containing 0.2 μg/mL of dopamine-d4 (Sigma-Aldrich, St Louis, MO, USA) and 0.2 μg/mL of chlorpropamide (Sigma-Aldrich, St Louis, MO, USA) using a counter-top bullet blender for 2 min and centrifuged at 20 000 rpm for 10 minutes. Supernatants were transferred to high performance liquid chromatography (HPLC) vials for analysis.
LC-high-resolution mass spectrometry/MS. Data dependent acquisition in both negative and positive ion mode was conducted using a Shimadzu Nexera UPLC system coupled to an AB SCIEX TripleTOF 5600 mass spectrometer (AB SCIEX, Toronto, Canada). Chromatographic separation was conducted using an Inertsil Phenyl-3 column (4.6×150 mm, 100 Å, 5 μm; GL Sciences, Tokyo, Japan). Spray voltage was −4200 V for negative ion mode and 4500 V for positive ion mode acquisition. The injection volume was 3 μL. Metabolite identifications were performed using Progenesis QI software (V2.4.6911) with METLIN plugin V1.0.6499 (NonLinear Dynamics, United Kingdom). Progenesis QI was used for peak picking, retention time correction, data normalization, peak alignment, and metabolite annotations. Metabolites were detected in both ion modes; the one with the lowest coefficient of variation of the QC was kept.

Structure (SMILES): COc1cc(O)c(CC=C(C)C)c(O)c1-c1cc(-c2ccc(O)cc2)n(C)n1 [XP, 4-(5-(4-hydroxyphenyl)-1-methyl-1H-pyrazol-3-yl)-5-methoxy-2-(3-methylbut-2-en-1-yl)benzene-1,3-diol]
- Ion intensities, Mean: 1,2-DIPALMITOYL-SN-GLYCEROL: 1513.84
- Ion intensities, Mean: 1-Arachidonoyl-glycerophosphoinositol: 546.96
- Ion intensities, Mean: 1-Palmitoyl-2-linoleoyl PE: 1180.62
- Ion intensities, Mean: 2-Pyrrolidinone: 1222.06
- Ion intensities, Mean: 2′-DEOXYURIDINE 5′-MONOPHOSPHATE: 594.66
- Ion intensities, Mean: 3-Methyl-L-histidine: 518.49
- Ion intensities, Mean: 3-PHOSPHO-GLYCERIC ACID: 2370.20
- Ion intensities, Mean: 5-Acetylamino-6-amino-3-methyluracil: 52.73
- Ion intensities, Mean: 5-Methylcytidine: 9448.98
- Ion intensities, Mean: 12-HYDROXYDODECANOIC-ACID: 2251.29
- Ion intensities, Mean: 20-Hydroxy-PGE2: 7093.39
- Ion intensities, Mean: 27-Hydroxycholesterol: 20090.45
- Ion intensities, Mean: ADENOSINE: 49823.74
- Ion intensities, Mean: ADENOSINE 5′-DIPHOSPHORIBOSE: 4312.21
- Ion intensities, Mean: ADENOSINE 5′-MONOPHOSPHATE: 90459.20
- Ion intensities, Mean: ADENOSINE-5′-DIPHOSPHOGLUCOSE: 1755.31
- Ion intensities, Mean: ADP: 3426.97
- Ion intensities, Mean: AMINOADIPATE: 331.86
- Ion intensities, Mean: ASCORBATE: 1431.15
- Ion intensities, Mean: ASPARTATE: 1333.10
- Ion intensities, Mean: Acetylcarnitine: 12649.68
- Ion intensities, Mean: Acetylcholine: 1745.95
- Ion intensities, Mean: Adenine: 1949.85
- Ion intensities, Mean: Adenylosuccinate: 1016.78
- Ion intensities, Mean: Adenylsuccinic acid: 3152.34
- Ion intensities, Mean: Arachidonic acid: 20901.19
- Ion intensities, Mean: Arachidonic acid ethyl ester: 351.43
- Ion intensities, Mean: Arginine: 2112.34
- Ion intensities, Mean: Aspartic acid: 8729.17
- Ion intensities, Mean: BILIVERDIN: 167.09
- Ion intensities, Mean: CARNITINE: 14584.14
- Ion intensities, Mean: CDP-Ethanolamine: 571.19
- Ion intensities, Mean: CHENODEOXYCHOLATE: 5735.03
- Ion intensities, Mean: CITRATE: 1682.49
- Ion intensities, Mean: CMP: 688.26
- Ion intensities, Mean: Carnosine: 1422.99
- Ion intensities, Mean: Choline: 8899.36
- Ion intensities, Mean: Creatine: 89712.34
- Ion intensities, Mean: Cysteineglutathione disulfide: 1531.40
- Ion intensities, Mean: Cytidine: 846.95
- Ion intensities, Mean: Cytidine 2′,3′-cyclic phosphate: 356.88
- Ion intensities, Mean: Cytidine diphosphate choline (CDPcholine): 2658.54
- Ion intensities, Mean: D-GLUCOSE 6-PHOSPHATE: 138.50
- Ion intensities, Mean: D-Glucaro-1,4-lactone: 1887.47
- Ion intensities, Mean: D-RIBOSE 5-PHOSPHATE: 136.10
- Ion intensities, Mean: DESMOSTEROL: 15551.25
- Ion intensities, Mean: DIHYDROOROTATE: 91.24
- Ion intensities, Mean: Deoxycytidine: 665.81
- Ion intensities, Mean: Deoxyguanosine: 2401.12
- Ion intensities, Mean: Docosahexaenoic acid: 2873.42
- Ion intensities, Mean: Docosenamide: 20845.53
- Ion intensities, Mean: Dodecanedioic acid: 333.82
- Ion intensities, Mean: ERUCIC ACID: 98.90
- Ion intensities, Mean: ETHANOLAMINE PHOSPHATE: 441.02
- Ion intensities, Mean: Ergothioneine: 515.38
- Ion intensities, Mean: Ethyl nicotinate: 81.18
- Ion intensities, Mean: GLUTAMIC ACID: 9048.31
- Ion intensities, Mean: GLUTAMINE: 22688.89
- Ion intensities, Mean: GUANOSINE 5′-MONOPHOSPHATE: 4141.69
- Ion intensities, Mean: Glutamate: 53559.34
- Ion intensities, Mean: Glutathione: 232313.32
- Ion intensities, Mean: Glycerophosphocholine: 124857.55
- Ion intensities, Mean: Guanosine monophosphate: 845.86
- Ion intensities, Mean: HEPTADECANOATE: 23.50
- Ion intensities, Mean: HISTIDINE: 1129.76
- Ion intensities, Mean: Homocarnosine: 689.23
- Ion intensities, Mean: Homoserine: 1034.62
- Ion intensities, Mean: Hydroxybutyric acid: 2833.09
- Ion intensities, Mean: Hydroxyphenethylamine: 4074.28
- Ion intensities, Mean: Hypoxanthine: 88.42
- Ion intensities, Mean: Hypusine: 196.91
- Ion intensities, Mean: ISOCITRIC ACID: 2051.66
- Ion intensities, Mean: ISOLEUCINE: 1578.44
- Ion intensities, Mean: Indoleacetaldehyde: 523.18
- Ion intensities, Mean: Inosine: 1409.62
- Ion intensities, Mean: Inosine 5′-monophosphate (IMP): 5581.09
- Ion intensities, Mean: Isostearic acid: 1901.95
- Ion intensities, Mean: L-2-Amino-5-hydroxypentanoicacid: 2343.03
- Ion intensities, Mean: L-OLEOYL-RAC-GLYCEROL: 2628.37
- Ion intensities, Mean: LACTATE: 3144.80
- Ion intensities, Mean: LAUROYLCARNITINE: 277.93
- Ion intensities, Mean: LEUKOTRIENE B4: 30.73
- Ion intensities, Mean: LYSINE: 107.27
- Ion intensities, Mean: Lathosterol: 14569.93
- Ion intensities, Mean: Lipoamide: 114.97
- Ion intensities, Mean: MALATE: 1664.52
- Ion intensities, Mean: Methionine: 2031.63
- Ion intensities, Mean: Methylthioadenosine: 3521.96
- Ion intensities, Mean: Myristoylcarnitine: 1303.77
- Ion intensities, Mean: N,N-dimethyl-Safingol: 578.09
- Ion intensities, Mean: N-(1-Deoxy-1-fructosyl) serine: 4331.01
- Ion intensities, Mean: N-ACETYL-L-ASPARTICACID: 25975.80
- Ion intensities, Mean: N-ACETYLNEURAMINATE: 1670.91
- Ion intensities, Mean: N-Acetyl-Glutamic acid: 205.45
- Ion intensities, Mean: N-Acetyl-L-alanine: 1909.11
- Ion intensities, Mean: N-Acetylaspartylglutamic acid: 2955.57
- Ion intensities, Mean: N-Acetylglutamine: 519.28
- Ion intensities, Mean: N-Acetylisoputreanine: 153.75
- Ion intensities, Mean: N-Acetyllactosamine: 273.32
- Ion intensities, Mean: N-Linoleoyl GABA: 54.12
- Ion intensities, Mean: N-Methyl-Glutamate: 2772.85
- Ion intensities, Mean: N-a-Acetyl-Arginine: 270.36
- Ion intensities, Mean: NAD: 1268.92
- Ion intensities, Mean: NE,NE,NE-TRIMETHYLLYSINE: 3943.68
- Ion intensities, Mean: Niacinamide: 5120.54
- Ion intensities, Mean: Nicotinamide adenine dinucleotide (NAD): 37985.70
- Ion intensities, Mean: O-Phosphoethanolamine: 302.71
- Ion intensities, Mean: Octadecenoic acid: 169.48
- Ion intensities, Mean: Oleamide: 3677.58
- Ion intensities, Mean: Oxidized glutathione: 4537.22
- Ion intensities, Mean: PALMITATE: 1211.29
- Ion intensities, Mean: PALMITOLEIC ACID: 39.36
- Ion intensities, Mean: PANTOTHENIC ACID: 524.89
- Ion intensities, Mean: PETROSELINIC ACID: 142.54
- Ion intensities, Mean: PHENYLALANINE: 2973.73
- Ion intensities, Mean: PHENYLETHANOLAMINE: 1559.27
- Ion intensities, Mean: Phenylpropionylglycine: 431.18
- Ion intensities, Mean: Phosphocholine: 23860.56
- Ion intensities, Mean: Phosphodimethyl-ethanolamine: 269.92
- Ion intensities, Mean: Pipecolic acid: 516.02
- Ion intensities, Mean: Propionylcarnitine: 540.78
- Ion intensities, Mean: Pyridoxamine-5′-Phosphate: 484.54
- Ion intensities, Mean: RAC-GLYCEROL-L-MYRISTATE: 283.53
- Ion intensities, Mean: S-Adenosylhomocysteine: 473.94
- Ion intensities, Mean: S-Adenosylmethionine: 18868.04
- Ion intensities, Mean: SERINE: 483.60
- Ion intensities, Mean: SUCCINATE: 304.14
- Ion intensities, Mean: Spermic acid 1: 199.76
- Ion intensities, Mean: Spermidine: 7809.52
- Ion intensities, Mean: Sphinganine: 23.16
- Ion intensities, Mean: Sphinganine 1-phosphate: 1966.99
- Ion intensities, Mean: Sphingosine: 1163.81
- Ion intensities, Mean: Stearoylglycerophosphoserine: 1831.40
- Ion intensities, Mean: Succinyladenosine: 217.97
- Ion intensities, Mean: TAURINE: 6801.22
- Ion intensities, Mean: THEOPHYLLINE: 18.56
- Ion intensities, Mean: TRYPTOPHAN: 1355.41
- Ion intensities, Mean: Tetradecanedioic acid: 115.20
- Ion intensities, Mean: Tetrahydrodeoxycortisol: 2674.78
- Ion intensities, Mean: Threoninyl-Alanine: 295.96
- Ion intensities, Mean: Tyrosine: 6818.63
- Ion intensities, Mean: URIDINE: 1161.25
- Ion intensities, Mean: URIDINE 5′-DIPHOSPHOGALACTOSE: 1728.73
- Ion intensities, Mean: URIDINE-5-MONOPHOSPHATE: 3704.01
- Ion intensities, Mean: Undecanedicarboxylic acid: 219.08
- Ion intensities, Mean: Uracil: 225.61
- Ion intensities, Mean: Uridine 5′-diphosphate: 422.30
- Ion intensities, Mean: Xanthine: 155.79
- Ion intensities, Mean: cyclic GMP-AMP: 2077.75
- Ion intensities, Mean: diethyltoluamide: 5.17
- Ion intensities, Mean: docosa-hexaenoic acid: 1911.88
- Ion intensities, Mean: hydroxyhexadecanoyl carnitine: 1048.02
- Ion intensities, Mean: hydroxyvitamin D3: 21210.39
- Ion intensities, Mean: sn-glycero-3-Phosphoethanolamine: 994.53

Source: patent US12534439B2, “Xanthohumol derivatives and methods for making and using” (Oregon State University, priority 2021, dated 2026)
